Assay results reported in article PMC7615751, “Anionic liposome formulation for oral delivery of thuricin CD, a potential antimicrobial peptide therapeutic” (International journal of pharmaceutics, 2024).

What was measured:
[1] = FaSSIF vs PBS; ref Ryan et al., 2021; cited from earlier work
Excerpt: The pH in FaSSIF is 6.5, and the pI of Trn α and Trn β is close to 4, so the thuricin CD peptides should both be slightly negatively charged in this solution (ExPASy, 2022), helping their dissolution in this medium. Also, it has been previously reported that lacticin 3147, a two peptide bacteriocin with similar ...

[2] = system: L. monocytogenes ATCC 1916; assay: Bioactivity of dissolved thuricin CD (MIC50, growth curves at OD 590 nm); assay type: cell-based; conditions: 24 h, 37 °C
Experimental: For this study, L. monocytogenes was used as an indicator strain. The minimum inhibitory concentration MIC50 was determined based on the protocol previously described by Mathur et al. ([Mathur, et al., 2017]). MIC50 was established as the concentration of peptides that inhibited 50 % of growth of L. monocytogenes ATCC 1916 ([Rea, 2010]).
Briefly, 1 mg/mL stock solutions of freeze-dried Trnα and Trnβ resuspended in 70 % IPA 0.1 % TFA in water were diluted in sterile PBS to a final concentration of 100 μg/mL (dissolved thuricin). For all the experiments in this, and the following sections, a 1:1 M ratio of Trn α: Trn β was used. The corresponding volumes of each peptide to reach 250 nM of each peptide (0.69 μg/mL Trn α + 0.72 μg/mL Trn β), 500 nM of each peptide (1.38 μg/mL Trn α + 1.43 μg/mL Trn β), 1 μM of each peptide (2.76 μg/mL Trn α + 2.86 μg/mL Trn β), and 2 μM of each peptide (5.53 μg/mL Trn α + 5.72 μg/mL Trn β) in the final well volume were added in triplicate to a 96 well plate. […] L. monocytogenes ATCC 1916 was grown in BHI broth shaking overnight at 37 °C. 150 μL of 10^5 CFU/mL bacterial culture was added to the wells with sample. Blanks were set up in triplicate with only PBS and media as well as a control containing buffer and bacterial culture. The plate was incubated in a Biotek ELx808 Ultra microplate reader at 37 °C for 24 h. Readings were taken every 30 min at 590 nm. […]

[3] = molecular target: T1, pepsin (Sus scrofa, UniProt P00791); assay: Enzymatic degradation of dissolved thuricin CD by pepsin (residual antibacterial activity); assay type: in vitro ADME; conditions: 5.6 μg/mL Trn α + 5.8 μg/mL Trn β
T1 construct: purchased Sigma Aldrich Ireland Ltd
Experimental: Trn α and Trn β stock solutions (1 mg/mL in 70 % IPA 0.1 % TFA in water) were filter sterilized and diluted to a final concentration of 100 μg/mL in sterile PBS. Pepsin activity was evaluated beforehand according to the haemoglobin assay, based on the principle that haemoglobin in water produces tyrosine peptides soluble in trichloroacetic acid (TCA) when pepsin is applied ([Brodkorb, 2019]). The activity units (AU or μmol/min), defined as the quantity of the enzyme that converts one micromole of substrate per minute, were determined before this test. Pepsin was suspended in cold 0.01 M HCl pH 2 reaching 824 activity units per mL. Trn α and Trn β were added to the same well of a 96-well plate in triplicate to give a final concentration of 5.6 μg/mL and 5.8 μg/mL respectively. […] 25 μL of pepsin solution was also added to each of the wells. This gave a final pepsin concentration/activity of 1.2 mg/mL or 98.8 AU/mL, which is the approximate concentration of enzyme present in the human stomach ([Liu, 2015]). Thuricin alone and pepsin alone were included as control samples with the bacterial culture. Blanks were set up in triplicate with PBS, 0.01 M HCl, and media only (BHI). […] The plate was incubated in a BioTek ELx808 Ultra microplate reader at 37 °C for 24 h at a wavelength of 590 nm. Readings were taken every 30 min for 24 h with the plate shaken mildly before each reading.

[4] = molecular target: T2, trypsin (Sus scrofa, UniProt P00761); assay: Enzymatic degradation of dissolved thuricin CD by trypsin (residual antibacterial activity); assay type: in vitro ADME; conditions: 4.4 μg/mL Trn α + 4.4 μg/mL Trn β; 19.3 μg/ml trypsin; 3 h, 37 °C; then growth curve 24 h, OD 590 nm; triplicate
T2 construct: purchased Sigma Aldrich Ireland Ltd
Experimental: (§1) Trn α and Trn β stock solutions (1 mg/mL in 70 % IPA 0.1 % TFA in water) were filter sterilized and diluted to a final concentration of 100 μg/mL in sterile PBS. Pepsin activity was evaluated beforehand according to the haemoglobin assay, based on the principle that haemoglobin in water produces tyrosine peptides soluble in trichloroacetic acid (TCA) when pepsin is applied ([Brodkorb, 2019]). The activity units (AU or μmol/min), defined as the quantity of the enzyme that converts one micromole of substrate per minute, were determined before this test. Pepsin was suspended in cold 0.01 M HCl pH 2 reaching 824 activity units per mL. Trn α and Trn β were added to the same well of a 96-well plate in triplicate to give a final concentration of 5.6 μg/mL and 5.8 μg/mL respectively. […] The plate was incubated in a BioTek ELx808 Ultra microplate reader at 37 °C for 24 h at a wavelength of 590 nm. Readings were taken every 30 min for 24 h with the plate shaken mildly before each reading.
(§2) A similar procedure was followed for trypsin and chymotrypsin, but different concentrations were used, and incubation time was 3 h. […] Trypsin activity units were determined by a previously established assay based on the principle that p-toluene-sulfonyl-l-arginine methyl ester (TAME) in water produces p-toluene-sulfonyl-L-arginine plus methanol when trypsin is applied ([Brodkorb, 2019]). […]

[5] = molecular target: T3, α-chymotrypsin (Bos taurus, UniProt P00766); assay: Enzymatic degradation of dissolved thuricin CD by α-chymotrypsin (residual antibacterial activity); assay type: in vitro ADME; conditions: 4.4 μg/mL Trn α + 4.4 μg/mL Trn β; 19.3 μg/ml α-chymotrypsin; 3 h, 37 °C; then growth curve 24 h, OD 590 nm; triplicate
T3 construct: purchased Sigma Aldrich Ireland Ltd
Experimental: as §1, §2

[6] = system: L. monocytogenes ATCC 1916; assay: Solution behaviour / activity of free thuricin CD in FaSSIF without enzymes; assay type: cell-based; conditions: free thuricin suspended from solid in FaSSIF pH 6.5, 37 °C, 0.2 μm filtered, growth curve 24 h, triplicate
Experimental: (§3) Fasted state simulated intestinal fluid (FaSSIF) and fasted state simulated gastric fluid (FaSSGF) were prepared using Biorelevant FaS-SIF/FaSSGF powder following the manufacturer’s instructions. Briefly, for FaSSIF, 0.21 g NaOH, 1.72 g sodium phosphate monobasic and 3.10 g NaCl were diluted in 400 mL distilled water. The solution was stirred until dissolved. The pH was then adjusted to 6.5 with 0.1 M HCl. 1.12 g FaSSIF powder was added and finally, the volume was topped up to 500 mL. For FaSSGF, 2 g NaCl was dissolved in 900 mL distilled water. The pH was adjusted to 1.6 with 1 M HCl.
Trn α and Trn β solutions at concentrations of 0.5 mg/mL in FaSSGF/FaSSIF were suspended directly from lyophilised powder (free thuricin). Further dilutions were carried out to reach concentrations of 2 times, 5 times and 10 times the MIC50 in the final volume to be used for the experiment. The suspensions were distributed in different microtubes and incubated at 37 °C, 300 rpm in an incubator for 0.5 h. An aliquot of each concentration was taken, and filter sterilized with a 0.2 μm PES filter. 50 μL of each sterile solution was transferred to a 96-well microtiter plate in triplicate. Each well was filled with 150 μL of a L. monocytogenes culture at an OD of 0.1. A control was set with 50 μL of FaSSGF/FaSSIF and 150 μL culture. The plate was incubated in a Biotek ELx808 Ultra microplate reader at 37 °C for 24 h at a wavelength of 590 nm. Readings were taken every 30 min for 24 h with the plate shaken mildly before each one. The readings collected from those samples were considered as time 0. In the meantime, the microtubes were put back in the incubator with reduced shaking. After 1, 4 and 24 h a new aliquot was taken, and the same protocol was followed for activity testing.

[7] = system: L. monocytogenes ATCC 1916; assay: Solution behaviour / activity of free thuricin CD in FaSSGF without enzymes; assay type: cell-based
Experimental: as §3
Trn α and Trn β solutions at concentrations of 0.5 mg/mL in FaSSGF/FaSSIF were suspended directly from lyophilised powder (free thuricin). Further dilutions were carried out to reach concentrations of 2 times, 5 times and 10 times the MIC50 in the final volume to be used for the experiment. The suspensions were distributed in different microtubes and incubated at 37 °C, 300 rpm in an incubator for 0.5 h. An aliquot of each concentration was taken, and filter sterilized with a 0.2 μm PES filter. […] The plate was incubated in a Biotek ELx808 Ultra microplate reader at 37 °C for 24 h at a wavelength of 590 nm. Readings were taken every 30 min for 24 h with the plate shaken mildly before each one. The readings collected from those samples were considered as time 0. […]

[8] = system: L. monocytogenes ATCC 1916; assay: Biological activity of Trn αβ loaded liposomes vs free thuricin CD in acetate buffer; assay type: cell-based; conditions: 1.25 and 2.50 μg/mL of each peptide, 37 °C, 24 h, OD 590 nm, triplicate
Experimental: The activity of Trn αβ liposomes was evaluated following the methodology previously described for thuricin CD. Briefly, the liposome suspension was filtered with a 0.45 μm PES sterile filter. Different volumes of the sterile liposome suspension were added to reach final concentrations of Trn α and Trn β of 1.25 and 2.50 μg/mL in each well. Samples were tested in triplicate. […] 150 μL of 10^5 CFU/mL L. monocytogenes ATCC 1916 culture was added to the wells with sample. Blanks were set up in triplicate with only media, the corresponding blank liposome suspension volume, and PBS. Controls contained inoculated media and PBS. The plate was incubated in a BioTek ELx808 Ultra microplate reader at 37 °C for 24 h. Readings were taken every 30 min at 590 nm. The same procedure was followed for free thuricin (freeze dried thuricin powder directly suspended in acetate buffer).

[9] = molecular target: T1, pepsin; assay: Biological activity after incubation in FaSSGF with pepsin; assay type: in vitro ADME; conditions: dissolved Trn α and β, 1.2 mg/mL pepsin in FaSSGF, 30 min, 37 °C; double the MIC50; L. monocytogenes growth curve 24 h
Experimental: The activity of αβ liposome suspension and dissolved αβ peptides after exposing both to FaSSGF with pepsin and FaSSIF without pancreatin was analysed. No pancreatin was added to FaSSIF because it inhibitied L. monocytogenes growth itself. Trn αβ loaded liposome suspension or dissolved thuricin (thuricin powder in 70 % IPA 0.1 % TFA in water and further diluted in acetate buffer) + pepsin in FaSSGF were prepared as described in the previous section. Control samples with acetate buffer + pepsin in FaSSGF were also prepared.
After 30 min incubation, pepsin was deactivated by heating the samples at 70 °C for 10 min. The volume necessary to reach a concentration of double the MIC50 of thuricin peptides was added to a 96-well plate. The wells were topped to 50 μL with PBS. 150 μL of 10^5 CFU/mL bacterial cell culture (L. monocytogenes) was added to each well. Blanks were set with media and control samples. The plate was incubated in a BioTek ELx808 Ultra microplate reader at 37 °C for 24 h at a wavelength of 590 nm. Readings were taken every 30 min for 24 h with the plate shaken mildly before each reading.

[10] = system: Caco-2 cells; assay: Presto blue cytotoxicity assay; assay type: cell-based; conditions: 5 μg/mL Trn α + 5 μg/mL Trn β, 24 h, 37 °C, absorbance 570 nm
Experimental: The biocompatibility of Trn αβ liposome suspension and dissolved thuricin CD with intestinal epithelial cells were tested. Caco-2 cells were grown in high glucose Dulbecco’s modified Eagle’s medium supplemented with 10 % fetal bovine serum, 1 % L-Glutamine, 1 % pen-strep, and 1 % non-essential amino acids at 37 °C, with 5 % CO2 and 95 % relative humidity. Approximately 10,000 cells were seeded per well in a 96-well plate. The plate was incubated overnight to ensure the cells adhered to the wells. The media was removed from the wells and filter-sterilized dissolved thuricin CD and Trn αβ liposome suspension samples at a final concentration of 5 μg/mL of each peptide were added 1:1 (v/v) with fresh media. Control wells were included by adding blank liposomes and just media to the cells. The plate was incubated for 24 h at 37 °C, with 5 % CO2 and 95 % relative humidity. The media was removed from the wells, 10 μL Presto blue +90 μL fresh media was added to each well and left incubating for 60 min. Finally, the absorbances of the solutions in the plate were read at 570 nm and plotted for all samples.

[11] = cell-free supernatants; ref Rea, 2010; cited from earlier work
Excerpt: However, because of their peptide nature, bacteriocins are susceptible to degradation, aggregation, and precipitation in the body, and can show low solubility and poor permeability ([Flynn et al., 2021]). Previous reports have evaluated the heat and pH stability of thuricin CD cell-free supernatants. […] Activity was also maintained in a pH range of 2 to 9 ([Rea, 2010]). Neither quantitative nor qualitative data on the solubility of thuricin in biorel ...

T1 sequence (P00791 60-385): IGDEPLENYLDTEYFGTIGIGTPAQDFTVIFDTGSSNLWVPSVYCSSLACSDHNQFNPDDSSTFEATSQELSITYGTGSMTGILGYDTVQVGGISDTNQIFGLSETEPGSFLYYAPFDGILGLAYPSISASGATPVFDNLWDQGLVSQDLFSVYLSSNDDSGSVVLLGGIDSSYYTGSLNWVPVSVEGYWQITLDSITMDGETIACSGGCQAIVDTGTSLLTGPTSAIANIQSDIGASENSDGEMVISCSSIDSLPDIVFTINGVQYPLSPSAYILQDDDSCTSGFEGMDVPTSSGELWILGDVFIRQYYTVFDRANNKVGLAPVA
T2 sequence (P00761 9-231): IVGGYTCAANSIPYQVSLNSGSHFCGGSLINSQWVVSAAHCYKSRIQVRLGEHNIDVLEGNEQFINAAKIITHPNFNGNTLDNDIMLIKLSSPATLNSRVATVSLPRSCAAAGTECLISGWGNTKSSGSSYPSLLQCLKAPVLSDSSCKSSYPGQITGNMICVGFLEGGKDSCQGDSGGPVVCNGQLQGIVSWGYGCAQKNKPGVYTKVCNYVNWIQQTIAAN

Row | Substance | solubility in FaSSIF [1] | effect on bacterial growth ([2]; 0.25 μM of each peptide) | inhibition of bacterial growth ([2]; 0.5 μM of each peptide, 1:1 M ratio) | activity against L. monocytogenes ATCC 1916 after exposure to pepsin ([3]; pepsin 1.2 mg/mL (98.8 AU/mL), 0.01 M HCl pH 2/PBS, 1.5 h, 37 °C, 70 rpm, then growth curve 24 h, OD 590 nm, triplicate) | time for which bacterial growth was inhibited, thuricin alone (no enzyme) ([3]; positive control without pepsin, incubated 1.5 h at 37 °C before culture, growth curve 24 h) | activity against L. monocytogenes ATCC 1916 after exposure to trypsin [4] | activity against L. monocytogenes ATCC 1916 after exposure to α-chymotrypsin [5] | activity after addition of lyophilised powder to FaSSIF, five times the MIC50 ([6]; all time points 0–24 h) | activity after addition of lyophilised powder to FaSSIF, ten times the MIC50 ([6]; all time points 0–24 h) | activity after addition of lyophilised powder to FaSSIF, double the MIC50 ([6]; time points 0, 1, 4, 24 h) | activity of peptides pre-dissolved in 70 % IPA 0.1 % TFA in water and diluted in FaSSGF ([7]; 2, 5 and 10 times the MIC50, 1:1 molar ratio, FaSSGF pH 1.6 (Figure S3)) | activity after addition of lyophilised powder to FaSSGF ([7]; free thuricin suspended from solid in FaSSGF pH 1.6, 37 °C, x2, x5, x10 MIC50, 0, 1, 4, 24 h, 0.2 μm filtered, growth curve 24 h, triplicate) | activity of lyophilised peptides directly suspended in acetate buffer [8] | activity after exposure to pepsin in FaSSGF [9] | cytotoxicity: absorbance compared to the control group of living cells [10] | heat stability at 85 °C [11] | heat stability at 90 °C [11] | heat stability at 100 °C [11]
1 | lacticin 3147 | improved solubility in FaSSIF compared to PBS | – | – | – | – | – | – | – | – | – | – | – | – | – | – | – | – | –
2 | thuricin CD | – | could not significantly inhibit bacterial growth | approximately 50% | deactivated | ~17 h | retained its activity | growth comparable to the control | activity is observed | activity is observed | no activity is observed | retained thuricin CD activity | no activity was detected | do not demonstrate any activity | completely lost activity | none of the samples exhibited any significant difference in absorbance | stable | reducing its activity | complete activity loss
